Reference: publication PMC8742467, “Therapeutical interference with the epigenetic landscape of germ cell tumors: a comparative drug study and new mechanistical insights” (Clinical Epigenetics, 2022)
pEC50: −log10 of the molar value. Read-outs that look alike come from different tables or passages of the source.

Legend:
GCT cell lines = assay: XTT cell viability assay, GCT cell lines (pre-screen / summary); format: cell-based, Human; settings: first pre-screen, XTT; for pEC50: read-out: EC50
Experimental: (§1) The […] (XTT) assays were performed as described previously. In summary, for GCT and fibroblast cell lines 5 × 10^3 cells (3 × 10^3 for UC, PCa and RCC cell lines) per 96-well were seeded and different drug concentrations (see Additional file 2: Fig. S2, Additional file 3: Fig. S3) or corresponding solvents were added to the cells the following day. For drug details see Additional file 12: Table S2 C. Each condition was analyzed in four technical replicates and EC50 values were calculated by GraphPad Prism v8.

JAR (CC) = assay: XTT cell viability assay, JAR; format: cell-based; settings: Homo sapiens, after 48 h, n = 4, read-out: EC50 colour/symbol code, CC JAR
Experimental: as §1

TCam-2 (SE) = assay: XTT cell viability assay, TCam-2; format: cell-based; settings: Homo sapiens, read-out: EC50 colour/symbol code, SE TCam-2
Experimental: as §1

2102EP (EC) = assay: XTT cell viability assay, 2102EP; format: cell-based; settings: Homo sapiens, read-out: EC50 colour/symbol code, EC 2102EP
Experimental: as §1

SMILES	pEC50 (GCT cell lines; Homo sapiens, GCT)	pEC50 (JAR (CC))	pEC50 (TCam-2 (SE); after 48 h, XTT, n = 4)	pEC50 (2102EP (EC); after 48 h, XTT, n = 4)	pEC50 (GCT cell lines)	pEC50 (TCam-2 (SE); 48 h)	pEC50 (2102EP (EC); 48 h)	EC50 / effective concentration in words (GCT cell lines; SE and EC proxies TCam-2 and 2102EP)
O=C(O)C1=CC(=C(c2ccc(O)c(C(=O)O)c2)c2ccc(O)c(C(=O)O)c2)C=CC1=O [Aurintricarboxylic Acid]	< 4.30	< 4.30	< 4.30	< 4.30				
COc1cc(-c2cn(C)c(=O)c3cnccc23)c(OC)cc1CN(C)C [BI-9564]	< 4.30	< 4.30	< 4.30	< 4.30				
NNCCc1ccc(NC(=O)CCCc2ccccc2)cc1 [Bizine]					< 4.30			
CN(C)NC(=O)CCC(=O)O [Daminozide]		< 4.30				< 4.30	< 4.30	
O=C(O)c1ccc(CN2CCC(CN[C@@H]3C[C@H]3c3ccccc3)CC2)cc1 [GSK2879552]	< 4.30	< 4.30	< 4.30	< 4.30				
NC(=O)c1cccnc1 [Nicotinamide]	< 4.30	< 4.30	< 4.30	< 4.30				
NC(=O)C1CCCc2c1[nH]c1ccc(Cl)cc21 (stereo not shown) [Selisistat]					< 4.30			
COc1cc(-c2cn(C)c(=O)c3cnccc23)cc(OC)c1CN1CCN(CCCCCOc2cc(-c3scnc3C)ccc2CNC(=O)[C@@H]2C[C@@H](O)CN2C(=O)[C@@H](NC(=O)C2(F)CC2)C(C)(C)C)CC1 [VZ185]		4.30 to 6.00	4.30 to 6.00	4.30 to 6.00				low micromolar concentrations
